The source of these data is ChEMBL document CHEMBL1139707, “In vitro inhibitory activity of boropinic acid against Helicobacter pylori” (2006).

By MIC is commonly meant the least concentration at which growth counts as inhibited. Read a low MIC as a more susceptible organism.

In brackets after ≈: the same amount, converted by molar mass.

In this assay the test system is Helicobacter pylori. The assay is described as follows: Antimicrobial activity against Helicobacter pylori DSMZ 4867. Type of assay: functional.
For the molecule `CC(C)=CCC/C(C)=C/COc1ccc(/C=C/C(=O)O)cc1`, the MIC was over 200 µg/mL. With `COc1cc(C(=O)O)ccc1OCC=C(C)C` the figure was 50 µg/mL (≈ 212 µM); with `COc1cc(C(=O)O)ccc1OC/C=C(\C)CCC=C(C)C`, over 200 µg/mL. `COc1cc(/C=C/C(=O)O)ccc1OC/C=C(\C)CCC=C(C)C`: the minimal inhibitory concentration (MIC) was over 200 µg/mL. `CC1(C)S[C@@H]2[C@H](NC(=O)[C@H](N)c3ccc(O)cc3)C(=O)N2[C@H]1C(=O)O` [AMOXICILLIN]: the MIC was 0.781 µg/mL (≈ 2.14 µM). `CC(C)=CCC/C(C)=C/COc1ccc2ccc(=O)oc2c1` [AURAPTENE] gave an MIC of 50 µg/mL (≈ 168 µM). Consider `COc1cc(/C=C/C(=O)O)ccc1OCC=C(C)C` [BOROPINIC ACID], for which the MIC worked out at 1.62 µg/mL (≈ 6.18 µM). This MIC lies about 31-fold lower than the previous one. Under `CC[C@H]1OC(=O)[C@H](C)[C@@H](O[C@H]2C[C@@](C)(OC)[C@@H](O)[C@H](C)O2)[C@H](C)[C@@H](O[C@@H]2O[C@H](C)C[C@H](N(C)C)[C@H]2O)[C@](C)(OC)C[C@@H](C)C(=O)[C@H](C)[C@@H](O)[C@]1(C)O` [CLARITHROMYCIN] stands 1.25 µg/mL (≈ 1.67 µM).

`Cc1ncc([N+](=O)[O-])n1CCO` [METRONIDAZOLE] gave an MIC of over 200 µg/mL.

In the case of `CN(C)[C@@H]1C(O)=C(C(N)=O)C(=O)[C@@]2(O)C(O)=C3C(=O)c4c(O)cccc4[C@@](C)(O)[C@H]3C[C@@H]12` [TETRACYCLINE], the lowest concentration to inhibit growth (MIC) was 4 µg/mL (≈ 9 µM). In turn, `CC(C)=CCOc1ccc(C(=O)O)cc1` [VALENCIC ACID] came in with an MIC of 100 µg/mL (≈ 485 µM). This MIC is about 25-fold higher than that of the molecule before.
